Organism: Rattus norvegicus
Assay: DrugMatrix - Regimen: Daily Repeat
Format: toxicity, organism-based, Sprague-Dawley
Parameters: regimen Daily Repeat, gender Male, age 6-8 weeks
Conditions: in vivo, po, route oral GAVAGE, vehicle .5 % CMC; for BASOPHIL / EOSINOPHIL / ERYTHROCYTE COUNT / HEMATOCRIT / HEMOGLOBIN / LEUKOCYTE COUNT / LYMPHOCYTE / MEAN CORPUSCULAR HEMOGLOBIN / MEAN CORPUSCULAR HEMOGLOBIN CONCENTRATION / MEAN CORPUSCULAR VOLUME / MONOCYTE / NEUTROPHIL / PLATELET COUNT: tissue Blood; for ALANINE AMINOTRANSFERASE / ALBUMIN / ALKALINE PHOSPHATASE / ASPARTATE AMINOTRANSFERASE / BLOOD UREA NITROGEN / CHLORIDE / CHOLESTEROL / CREATINE PHOSPHOKINASE / CREATININE / GLUCOSE / PHOSPHORUS / POTASSIUM / SODIUM / TOTAL BILIRUBIN / TOTAL PROTEIN: tissue Plasma
[1] = 0 mg/kg, 72 h, dose level Control, time 3 day
[2] = 0 mg/kg, 120 h, dose level Control, time 5 day
[3] = 50 mg/kg, 72 h, dose level Low, time 3 day
[4] = 50 mg/kg, 120 h, dose level Low, time 5 day
[5] = 1000 mg/kg, 72 h, dose level High, time 3 day
[6] = 1000 mg/kg, 120 h, dose level High, time 5 day

`CC(C)NCC(O)COc1ccc(CC(N)=O)cc1` (stereo not drawn) [ATENOLOL] was tested, and the BASOPHIL [1] was 0%, the EOSINOPHIL [1] was 0.33% and the “ERYTHROCYTE COUNT” value [1] was 6.2 x10E6/uL. For the same compound, the HEMATOCRIT [1] was 38.08%, the HEMOGLOBIN [1] was 14.92 G/DL and the “LEUKOCYTE COUNT” value [1] was 11.13 x10E3/uL. For the same compound, the LYMPHOCYTE [1] was 76%, the “MEAN CORPUSCULAR HEMOGLOBIN” value [1] was 24.1 pg and the “MEAN CORPUSCULAR HEMOGLOBIN CONCENTRATION” value [1] was 39.17 G/DL. For the same compound, the “MEAN CORPUSCULAR VOLUME” value [1] was 61.48 fL, the MONOCYTE [1] was 3.83% and the NEUTROPHIL [1] was 19.83%. For the same compound, the “PLATELET COUNT” value [1] was 1327.5 x10E3/uL, the “ALANINE AMINOTRANSFERASE” value [1] was 40.17 u/L and the ALBUMIN [1] was 4.07 G/DL. The “ALKALINE PHOSPHATASE” value [1] was 372 u/L, the “ASPARTATE AMINOTRANSFERASE” value [1] was 67.17 u/L and the “BLOOD UREA NITROGEN” value [1] was 18.83 mg/dL. For the same compound, the CHLORIDE [1] was 105.17 MEQ/L, the CHOLESTEROL [1] was 78.17 mg/dL and the “CREATINE PHOSPHOKINASE” value [1] was 149.17 u/L. For the same compound, the CREATININE [1] was 0.57 mg/dL, the GLUCOSE [1] was 185.17 mg/dL and the PHOSPHORUS [1] was 11.43 mg/dL. For the same compound, the POTASSIUM [1] was 6.78 MEQ/L, the SODIUM [1] was 152.83 MEQ/L and the “TOTAL BILIRUBIN” value [1] was 0.4 mg/dL. For the same compound, the “TOTAL PROTEIN” value [1] was 6.87 G/DL, the BASOPHIL [2] was 0% and the EOSINOPHIL [2] was 0%. For the same compound, the “ERYTHROCYTE COUNT” value [2] was 6.05 x10E6/uL, the HEMATOCRIT [2] was 36.55% and the HEMOGLOBIN [2] was 14.7 G/DL. For the same compound, the “LEUKOCYTE COUNT” value [2] was 11.8 x10E3/uL, the LYMPHOCYTE [2] was 86.83% and the “MEAN CORPUSCULAR HEMOGLOBIN” value [2] was 24.37 pg. For the same compound, the “MEAN CORPUSCULAR HEMOGLOBIN CONCENTRATION” value [2] was 40.32 G/DL, the “MEAN CORPUSCULAR VOLUME” value [2] was 60.47 fL and the MONOCYTE [2] was 0.83%. For the same compound, the NEUTROPHIL [2] was 12.33%, the “PLATELET COUNT” value [2] was 1177 x10E3/uL and the “ALANINE AMINOTRANSFERASE” value [2] was 41.83 u/L. For the same compound, the ALBUMIN [2] was 3.75 G/DL, the “ALKALINE PHOSPHATASE” value [2] was 377.5 u/L and the “ASPARTATE AMINOTRANSFERASE” value [2] was 60.83 u/L. For the same compound, the “BLOOD UREA NITROGEN” value [2] was 16 mg/dL, the CHLORIDE [2] was 105.67 MEQ/L and the CHOLESTEROL [2] was 67.83 mg/dL. The “CREATINE PHOSPHOKINASE” value [2] was 120.33 u/L, the CREATININE [2] was 0.6 mg/dL and the GLUCOSE [2] was 167.67 mg/dL. It also gave a PHOSPHORUS [2] of 10.03 mg/dL, a POTASSIUM [2] of 6.68 MEQ/L and an SODIUM [2] of 150.5 MEQ/L. The “TOTAL BILIRUBIN” value [2] was 0.57 mg/dL, the “TOTAL PROTEIN” value [2] was 6.25 G/DL and the BASOPHIL [3] was 0%. The EOSINOPHIL [3] was 0%, the “ERYTHROCYTE COUNT” value [3] was 5.54 x10E6/uL and the HEMATOCRIT [3] was 35.3%. For the same compound, the HEMOGLOBIN [3] was 13.9 G/DL, the “LEUKOCYTE COUNT” value [3] was 9.75 x10E3/uL and the LYMPHOCYTE [3] was 86%. For the same compound, the “MEAN CORPUSCULAR HEMOGLOBIN” value [3] was 25.1 pg, the “MEAN CORPUSCULAR HEMOGLOBIN CONCENTRATION” value [3] was 39.35 G/DL and the “MEAN CORPUSCULAR VOLUME” value [3] was 63.75 fL. For the same compound, the MONOCYTE [3] was 1%, the NEUTROPHIL [3] was 13% and the “PLATELET COUNT” value [3] was 1258 x10E3/uL. For the same compound, the “ALANINE AMINOTRANSFERASE” value [3] was 34.5 u/L, the ALBUMIN [3] was 3.75 G/DL and the “ALKALINE PHOSPHATASE” value [3] was 332 u/L. The “ASPARTATE AMINOTRANSFERASE” value [3] was 57 u/L, the “BLOOD UREA NITROGEN” value [3] was 18 mg/dL and the CHLORIDE [3] was 106 MEQ/L. For the same compound, the CHOLESTEROL [3] was 83 mg/dL, the “CREATINE PHOSPHOKINASE” value [3] was 110 u/L and the CREATININE [3] was 0.55 mg/dL. It also gave a GLUCOSE [3] of 164.5 mg/dL, a PHOSPHORUS [3] of 11.45 mg/dL and a POTASSIUM [3] of 6.45 MEQ/L. The SODIUM [3] was 152 MEQ/L, the “TOTAL BILIRUBIN” value [3] was 0.3 mg/dL and the “TOTAL PROTEIN” value [3] was 6.2 G/DL. The BASOPHIL [4] was 0%, the EOSINOPHIL [4] was 0% and the “ERYTHROCYTE COUNT” value [4] was 5.99 x10E6/uL. For the same compound, the HEMATOCRIT [4] was 36.17%, the HEMOGLOBIN [4] was 14.4 G/DL and the “LEUKOCYTE COUNT” value [4] was 11.97 x10E3/uL. The LYMPHOCYTE [4] was 88%, the “MEAN CORPUSCULAR HEMOGLOBIN” value [4] was 24.03 pg and the “MEAN CORPUSCULAR HEMOGLOBIN CONCENTRATION” value [4] was 39.8 G/DL. The “MEAN CORPUSCULAR VOLUME” value [4] was 60.4 fL, the MONOCYTE [4] was 1.67% and the NEUTROPHIL [4] was 10.33%. The “PLATELET COUNT” value [4] was 1118 x10E3/uL, the “ALANINE AMINOTRANSFERASE” value [4] was 39.67 u/L and the ALBUMIN [4] was 3.6 G/DL. The “ALKALINE PHOSPHATASE” value [4] was 354.33 u/L, the “ASPARTATE AMINOTRANSFERASE” value [4] was 60.33 u/L and the “BLOOD UREA NITROGEN” value [4] was 14 mg/dL. For the same compound, the CHLORIDE [4] was 104.67 MEQ/L, the CHOLESTEROL [4] was 72 mg/dL and the “CREATINE PHOSPHOKINASE” value [4] was 115 u/L. For the same compound, the CREATININE [4] was 0.53 mg/dL, the GLUCOSE [4] was 172.33 mg/dL and the PHOSPHORUS [4] was 10.87 mg/dL. The POTASSIUM [4] was 6.93 MEQ/L, the SODIUM [4] was 150.33 MEQ/L and the “TOTAL BILIRUBIN” value [4] was 0.3 mg/dL. For the same compound, the “TOTAL PROTEIN” value [4] was 5.93 G/DL, the BASOPHIL [5] was 0% and the EOSINOPHIL [5] was 0.67%. For the same compound, the “ERYTHROCYTE COUNT” value [5] was 5.98 x10E6/uL, the HEMATOCRIT [5] was 36.83% and the HEMOGLOBIN [5] was 14.37 G/DL. For the same compound, the “LEUKOCYTE COUNT” value [5] was 10.2 x10E3/uL, the LYMPHOCYTE [5] was 87.33% and the “MEAN CORPUSCULAR HEMOGLOBIN” value [5] was 24.07 pg. For the same compound, the “MEAN CORPUSCULAR HEMOGLOBIN CONCENTRATION” value [5] was 39.03 G/DL, the “MEAN CORPUSCULAR VOLUME” value [5] was 61.67 fL and the MONOCYTE [5] was 0.67%. For the same compound, the NEUTROPHIL [5] was 11.33%, the “PLATELET COUNT” value [5] was 1408.33 x10E3/uL and the “ALANINE AMINOTRANSFERASE” value [5] was 45.67 u/L. For the same compound, the ALBUMIN [5] was 3.63 G/DL, the “ALKALINE PHOSPHATASE” value [5] was 339 u/L and the “ASPARTATE AMINOTRANSFERASE” value [5] was 60.67 u/L. For the same compound, the “BLOOD UREA NITROGEN” value [5] was 14 mg/dL, the CHLORIDE [5] was 107 MEQ/L and the CHOLESTEROL [5] was 70 mg/dL. The “CREATINE PHOSPHOKINASE” value [5] was 137.33 u/L, the CREATININE [5] was 0.5 mg/dL and the GLUCOSE [5] was 170.33 mg/dL. The PHOSPHORUS [5] was 10.57 mg/dL, the POTASSIUM [5] was 6.17 MEQ/L and the SODIUM [5] was 151.33 MEQ/L. The “TOTAL BILIRUBIN” value [5] was 0.3 mg/dL, the “TOTAL PROTEIN” value [5] was 6 G/DL and the BASOPHIL [6] was 0%. For the same compound, the EOSINOPHIL [6] was 0%, the “ERYTHROCYTE COUNT” value [6] was 7.06 x10E6/uL and the HEMATOCRIT [6] was 43.27%. The HEMOGLOBIN [6] was 16.87 G/DL, the “LEUKOCYTE COUNT” value [6] was 15.07 x10E3/uL and the LYMPHOCYTE [6] was 82%. For the same compound, the “MEAN CORPUSCULAR HEMOGLOBIN” value [6] was 24 pg, the “MEAN CORPUSCULAR HEMOGLOBIN CONCENTRATION” value [6] was 39.07 G/DL and the “MEAN CORPUSCULAR VOLUME” value [6] was 61.43 fL. For the same compound, the MONOCYTE [6] was 2.67%, the NEUTROPHIL [6] was 15.33% and the “PLATELET COUNT” value [6] was 1202 x10E3/uL. The “ALANINE AMINOTRANSFERASE” value [6] was 39.67 u/L, the ALBUMIN [6] was 3.77 G/DL and the “ALKALINE PHOSPHATASE” value [6] was 265.33 u/L. The “ASPARTATE AMINOTRANSFERASE” value [6] was 77 u/L, the “BLOOD UREA NITROGEN” value [6] was 20 mg/dL and the CHLORIDE [6] was 111.33 MEQ/L. For the same compound, the CHOLESTEROL [6] was 76.33 mg/dL, the “CREATINE PHOSPHOKINASE” value [6] was 139.33 u/L and the CREATININE [6] was 0.6 mg/dL. The GLUCOSE [6] was 166 mg/dL, the PHOSPHORUS [6] was 11.47 mg/dL and the POTASSIUM [6] was 7 MEQ/L. The SODIUM [6] was 158.33 MEQ/L, the “TOTAL BILIRUBIN” value [6] was 0.27 mg/dL and the “TOTAL PROTEIN” value [6] was 6.3 G/DL.

From ChEMBL document CHEMBL3885881, “DrugMatrix”
